Experimental findings from ChEMBL document CHEMBL1201862, “PubChem BioAssay data set” (2004) are described below.

Activity calls are given as the source filed them. Bounds are passed on as bounds.

A short description of assay [1]: StAR promoter reporter inhibition counter-screen, dose response, counter-screen for LRH-1 inverse agonist project, cell-based, luminescence, luciferase reporter (AID 651969). It counts as functional. For orientation: Counterscreens check selectivity or assay interference.
Assay [2] deals with Nuclear receptor subfamily 5 group A member 2 (Homo sapiens, UniProt O00482). It counts as functional, cell-based.
Chain of Nuclear receptor subfamily 5 group A member 2 (O00482 whole entry): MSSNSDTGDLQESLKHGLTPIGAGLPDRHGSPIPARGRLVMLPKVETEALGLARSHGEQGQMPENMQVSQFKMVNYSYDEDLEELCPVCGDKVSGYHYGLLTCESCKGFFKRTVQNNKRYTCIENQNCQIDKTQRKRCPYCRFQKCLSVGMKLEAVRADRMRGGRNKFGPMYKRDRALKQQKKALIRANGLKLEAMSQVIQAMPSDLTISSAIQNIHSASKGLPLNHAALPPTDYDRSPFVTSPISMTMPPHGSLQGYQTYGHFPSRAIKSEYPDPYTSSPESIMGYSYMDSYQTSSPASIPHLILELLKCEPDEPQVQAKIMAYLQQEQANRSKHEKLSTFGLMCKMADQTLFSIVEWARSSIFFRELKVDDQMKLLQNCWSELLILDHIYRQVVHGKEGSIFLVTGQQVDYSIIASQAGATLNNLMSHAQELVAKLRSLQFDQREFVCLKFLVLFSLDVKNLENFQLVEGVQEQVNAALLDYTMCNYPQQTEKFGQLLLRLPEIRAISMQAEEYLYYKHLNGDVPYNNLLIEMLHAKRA
A further assay addresses Steroidogenic factor 1 (Homo sapiens, UniProt Q13285). Description: Counterscreen for inverse agonists of the liver receptor homolog-1 (LRH-1; NR5A2): Luminescence-based cell-based high throughput dose response assay to identify inverse agonists of the Steroidogenic Factor 1 Nuclear Receptor (SF1; NR5A1). It counts as functional.
The target in assay [3] is T1, Apoptotic protease-activating factor 1 (Homo sapiens, UniProt O14727).
T1 sequence (O14727 whole entry): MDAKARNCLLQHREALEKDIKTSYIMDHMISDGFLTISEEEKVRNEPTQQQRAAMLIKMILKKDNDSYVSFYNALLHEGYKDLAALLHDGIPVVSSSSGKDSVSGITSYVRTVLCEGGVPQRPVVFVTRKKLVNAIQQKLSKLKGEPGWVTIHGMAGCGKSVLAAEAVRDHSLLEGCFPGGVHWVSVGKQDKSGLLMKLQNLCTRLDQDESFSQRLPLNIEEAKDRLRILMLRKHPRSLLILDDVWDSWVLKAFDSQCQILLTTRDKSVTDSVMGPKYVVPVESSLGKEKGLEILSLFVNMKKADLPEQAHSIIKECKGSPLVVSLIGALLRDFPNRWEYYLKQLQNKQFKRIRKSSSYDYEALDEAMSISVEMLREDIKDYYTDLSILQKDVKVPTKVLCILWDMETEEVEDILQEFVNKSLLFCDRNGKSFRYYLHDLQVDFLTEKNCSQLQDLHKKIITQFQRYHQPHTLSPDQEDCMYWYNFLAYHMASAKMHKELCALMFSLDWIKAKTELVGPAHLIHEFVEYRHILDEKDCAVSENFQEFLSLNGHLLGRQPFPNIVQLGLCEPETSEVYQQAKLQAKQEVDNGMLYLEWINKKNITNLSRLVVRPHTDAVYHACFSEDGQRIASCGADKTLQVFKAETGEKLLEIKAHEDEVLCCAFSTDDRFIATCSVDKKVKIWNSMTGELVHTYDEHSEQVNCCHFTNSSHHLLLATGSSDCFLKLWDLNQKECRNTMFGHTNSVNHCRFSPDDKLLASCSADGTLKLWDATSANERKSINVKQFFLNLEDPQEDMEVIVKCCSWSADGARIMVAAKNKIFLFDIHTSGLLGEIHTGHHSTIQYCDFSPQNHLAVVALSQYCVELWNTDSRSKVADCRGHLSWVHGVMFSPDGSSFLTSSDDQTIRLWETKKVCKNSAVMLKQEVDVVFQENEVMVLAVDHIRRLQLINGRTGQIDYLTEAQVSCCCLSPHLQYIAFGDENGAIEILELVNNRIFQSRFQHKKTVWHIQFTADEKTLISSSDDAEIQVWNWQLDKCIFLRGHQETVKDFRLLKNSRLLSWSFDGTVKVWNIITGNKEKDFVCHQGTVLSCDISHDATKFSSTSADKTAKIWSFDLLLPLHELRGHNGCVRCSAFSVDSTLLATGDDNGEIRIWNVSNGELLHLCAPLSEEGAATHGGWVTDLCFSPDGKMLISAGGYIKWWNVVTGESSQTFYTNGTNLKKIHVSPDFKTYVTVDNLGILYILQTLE
It counts as functional.

Assay [4] deals with T2, Probable nicotinate-nucleotide adenylyltransferase (Staphylococcus aureus (strain N315), UniProt P65502). It counts as functional, Staphylococcus aureus subsp. aureus N315. Particulars: read-out: IC50_Mean.
T2 sequence (P65502 whole entry): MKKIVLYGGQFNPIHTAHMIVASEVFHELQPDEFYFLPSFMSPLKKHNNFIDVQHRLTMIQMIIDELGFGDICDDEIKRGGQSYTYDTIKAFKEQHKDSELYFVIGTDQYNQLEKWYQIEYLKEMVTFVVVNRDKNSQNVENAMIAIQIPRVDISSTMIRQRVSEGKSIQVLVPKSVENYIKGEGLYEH
In assay [5] the target is T3, Sentrin-specific protease 8 (Homo sapiens, UniProt Q96LD8).
T3 sequence (Q96LD8 whole entry): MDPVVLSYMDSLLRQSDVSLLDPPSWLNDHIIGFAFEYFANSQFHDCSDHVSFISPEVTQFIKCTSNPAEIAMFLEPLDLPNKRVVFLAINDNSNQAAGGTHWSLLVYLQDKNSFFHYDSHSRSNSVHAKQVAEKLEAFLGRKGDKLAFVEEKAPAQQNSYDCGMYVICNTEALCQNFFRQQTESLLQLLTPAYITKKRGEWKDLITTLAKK
It counts as functional.

For assay [6], the target named is T3, Sentrin-specific protease 8. It counts as functional. This is another data set of the same source.
Assay [7] has as its target T2, Probable nicotinate-nucleotide adenylyltransferase. It counts as functional, Staphylococcus aureus subsp. aureus N315.
Assay [8] concerns the target Beta-lactamase (Pseudomonas aeruginosa, UniProt Q79MP6).
The test system of the next assay is H9c2. Description: cells. It counts as functional, cell-based. The conditions noted are these: Rattus norvegicus, H9c2, Myocardium.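 Also: confirmatory concentration-response retest of ultra-high-throughput screening hits for modulation of myocardial damage; cell death induced by hydrogen peroxide oxidative stress; compound pretreatment for 60 min then peroxide exposure for 2 h; potency is for protecting the cells against peroxide damage rather than for killing them.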
For assay [9], the target named is T4, Low molecular weight phosphotyrosine protein phosphatase (Homo sapiens, UniProt P24666).
T4 sequence (P24666 whole entry): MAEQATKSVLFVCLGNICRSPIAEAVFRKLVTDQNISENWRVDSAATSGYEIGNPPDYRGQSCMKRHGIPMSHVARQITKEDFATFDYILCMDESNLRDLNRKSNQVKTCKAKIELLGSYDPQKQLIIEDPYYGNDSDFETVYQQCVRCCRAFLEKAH
It counts as functional. Particulars: read-out: IC50_Mean.

Assay [10] concerns the target T5, Carboxy-terminal domain RNA polymerase II polypeptide A small phosphatase 1 (Homo sapiens, UniProt Q9GZU7).
T5 sequence (Q9GZU7 whole entry): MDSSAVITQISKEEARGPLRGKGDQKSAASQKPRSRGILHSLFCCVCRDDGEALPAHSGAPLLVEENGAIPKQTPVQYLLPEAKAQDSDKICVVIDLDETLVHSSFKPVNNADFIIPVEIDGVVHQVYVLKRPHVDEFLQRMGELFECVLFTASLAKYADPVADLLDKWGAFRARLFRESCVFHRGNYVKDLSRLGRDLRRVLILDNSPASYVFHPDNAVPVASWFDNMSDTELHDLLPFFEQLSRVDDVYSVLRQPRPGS
The assay can be described thus: inhibitors of CTDSP1, concentration-response testing, biochemical assay, absorbance-based, actives from ultra-high-throughput screening (AID 540297). It counts as functional.

In assay [11] the target is T6, Tyrosine-protein phosphatase non-receptor type 22 (Homo sapiens, UniProt Q9Y2R2).
T6 sequence (Q9Y2R2 whole entry): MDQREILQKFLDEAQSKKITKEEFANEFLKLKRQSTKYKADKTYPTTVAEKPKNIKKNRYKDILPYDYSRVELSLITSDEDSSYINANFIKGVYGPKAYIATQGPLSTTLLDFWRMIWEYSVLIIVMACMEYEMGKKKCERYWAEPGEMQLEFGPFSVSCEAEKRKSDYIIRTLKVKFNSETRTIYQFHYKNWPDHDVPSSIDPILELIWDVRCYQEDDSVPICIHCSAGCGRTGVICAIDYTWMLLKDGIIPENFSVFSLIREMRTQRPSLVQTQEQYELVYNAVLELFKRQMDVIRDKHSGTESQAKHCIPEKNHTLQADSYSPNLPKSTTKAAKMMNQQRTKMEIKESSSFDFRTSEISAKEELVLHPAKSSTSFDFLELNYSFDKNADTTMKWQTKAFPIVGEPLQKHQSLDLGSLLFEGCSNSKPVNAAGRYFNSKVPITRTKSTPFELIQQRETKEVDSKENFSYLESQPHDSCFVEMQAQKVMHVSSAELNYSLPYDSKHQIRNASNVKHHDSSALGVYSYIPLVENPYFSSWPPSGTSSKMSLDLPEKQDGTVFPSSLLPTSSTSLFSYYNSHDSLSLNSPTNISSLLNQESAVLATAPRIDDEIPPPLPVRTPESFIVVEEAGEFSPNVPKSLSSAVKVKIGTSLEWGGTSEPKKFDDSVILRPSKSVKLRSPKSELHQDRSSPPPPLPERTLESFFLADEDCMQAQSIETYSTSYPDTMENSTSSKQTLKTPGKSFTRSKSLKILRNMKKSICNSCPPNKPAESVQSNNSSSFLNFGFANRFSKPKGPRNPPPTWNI
Description: LYP phosphatase inhibition for selectivity, dose response, selectivity assay for LMPTP inhibitor project, biochemical, fluorescence, LYP catalytic domain (AID 652006). The conditions noted are these: read-out: IC50_Mean. It counts as functional.

In assay [12] the target is Beta-lactamase (Salmonella choleraesuis (strain SC-B67), UniProt Q5J463).
Chain of Beta-lactamase (Salmonella choleraesuis (strain SC-B67), UniProt Q5J463) (Q5J463 whole entry): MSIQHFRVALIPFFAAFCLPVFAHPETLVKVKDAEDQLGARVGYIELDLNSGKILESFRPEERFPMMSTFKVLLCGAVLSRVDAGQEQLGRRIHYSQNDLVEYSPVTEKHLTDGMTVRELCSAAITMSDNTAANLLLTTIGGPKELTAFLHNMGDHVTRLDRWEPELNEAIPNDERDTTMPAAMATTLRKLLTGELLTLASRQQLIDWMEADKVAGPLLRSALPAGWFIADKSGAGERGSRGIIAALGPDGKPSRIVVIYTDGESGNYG
For assay [13], the target named is T4, Low molecular weight phosphotyrosine protein phosphatase. It counts as functional. The conditions noted are these: read-out: IC50_Mean. This is another data set of the same source.
The target of a further assay is T7, Leucine aminopeptidase (Plasmodium falciparum 3D7, UniProt Q8IL11).
T7 sequence (Q8IL11 whole entry): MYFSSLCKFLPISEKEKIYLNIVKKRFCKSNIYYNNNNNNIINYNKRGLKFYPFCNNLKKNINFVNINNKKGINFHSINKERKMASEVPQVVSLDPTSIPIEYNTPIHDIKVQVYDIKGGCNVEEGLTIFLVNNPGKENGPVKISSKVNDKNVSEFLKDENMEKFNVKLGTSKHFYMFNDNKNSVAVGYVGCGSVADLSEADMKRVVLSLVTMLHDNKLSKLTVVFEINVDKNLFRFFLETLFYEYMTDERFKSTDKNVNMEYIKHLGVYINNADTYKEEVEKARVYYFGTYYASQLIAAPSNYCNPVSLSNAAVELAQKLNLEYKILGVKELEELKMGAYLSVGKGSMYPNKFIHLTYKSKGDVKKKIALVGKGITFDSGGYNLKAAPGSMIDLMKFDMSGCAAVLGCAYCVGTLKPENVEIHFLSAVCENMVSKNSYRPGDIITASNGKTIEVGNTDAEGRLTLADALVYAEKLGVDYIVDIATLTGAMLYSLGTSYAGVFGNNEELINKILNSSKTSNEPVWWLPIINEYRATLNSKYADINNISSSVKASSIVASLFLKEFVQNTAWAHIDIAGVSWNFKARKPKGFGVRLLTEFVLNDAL
The assay can be described thus: P. falciparum M17LAP inhibitors, primary screen, biochemical, fluorogenic H-Leu-NHMec substrate, 1536-well (AID 1619). It counts as functional.

Assay [14] addresses T8, Corticotropin-releasing factor receptor 2/Corticotropin-releasing factor-binding protein (Homo sapiens, UniProt P24387+Q13324).
T8 sequence (Q13324 whole entry): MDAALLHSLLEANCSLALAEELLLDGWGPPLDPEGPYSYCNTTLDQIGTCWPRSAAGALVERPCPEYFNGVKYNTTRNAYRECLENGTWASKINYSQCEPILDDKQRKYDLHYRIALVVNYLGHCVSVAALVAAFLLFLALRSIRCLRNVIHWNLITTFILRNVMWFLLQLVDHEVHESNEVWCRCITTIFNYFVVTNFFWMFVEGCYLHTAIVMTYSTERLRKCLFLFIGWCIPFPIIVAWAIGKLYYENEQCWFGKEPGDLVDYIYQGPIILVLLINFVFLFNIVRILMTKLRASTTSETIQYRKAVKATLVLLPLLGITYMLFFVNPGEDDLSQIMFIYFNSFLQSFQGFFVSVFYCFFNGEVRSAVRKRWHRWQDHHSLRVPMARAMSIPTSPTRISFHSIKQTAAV
T8 sequence (P24387 whole entry): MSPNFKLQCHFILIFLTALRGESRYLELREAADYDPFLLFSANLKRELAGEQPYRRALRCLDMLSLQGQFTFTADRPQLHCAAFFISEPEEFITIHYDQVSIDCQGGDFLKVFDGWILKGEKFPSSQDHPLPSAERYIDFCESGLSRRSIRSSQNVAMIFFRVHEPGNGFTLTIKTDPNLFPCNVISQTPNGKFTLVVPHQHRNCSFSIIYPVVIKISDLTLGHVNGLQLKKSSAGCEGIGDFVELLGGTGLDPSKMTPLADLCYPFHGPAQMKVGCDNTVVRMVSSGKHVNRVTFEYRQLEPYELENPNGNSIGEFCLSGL
Description: activators of CRF receptor 2 with binding protein – uHTS hits, confirmation (AID 602473). It counts as functional. The conditions noted are these: read-out: EC50_Mean.

Assay [15] has as its target T8, Corticotropin-releasing factor receptor 2/Corticotropin-releasing factor-binding protein. The assay can be described thus: Dose Response confirmation of uHTS hits for small molecule antagonists of the CRF-binding protein and CRF-R2 receptor complex. It counts as functional. The conditions noted are these: read-out: IC50_Mean.
Assay [16] in a line: NIH/3T3 fibroblast cytotoxicity, dose response, cytotoxicity control for T. cruzi growth inhibitor project, cell-based, cherry-pick samples, set 2 (AID 651817). It counts as functional. Particulars: NIH3T3.
The target in another assay is Genome polyprotein (dengue virus type 2, UniProt P29990). The assay can be described thus: Dengue-2 NS5 methyltransferase inhibitors, primary screen, biochemical, confirmation dose response (AID 588689). It counts as functional.
Chain of Genome polyprotein (P29990 2492-3391 limits assumed): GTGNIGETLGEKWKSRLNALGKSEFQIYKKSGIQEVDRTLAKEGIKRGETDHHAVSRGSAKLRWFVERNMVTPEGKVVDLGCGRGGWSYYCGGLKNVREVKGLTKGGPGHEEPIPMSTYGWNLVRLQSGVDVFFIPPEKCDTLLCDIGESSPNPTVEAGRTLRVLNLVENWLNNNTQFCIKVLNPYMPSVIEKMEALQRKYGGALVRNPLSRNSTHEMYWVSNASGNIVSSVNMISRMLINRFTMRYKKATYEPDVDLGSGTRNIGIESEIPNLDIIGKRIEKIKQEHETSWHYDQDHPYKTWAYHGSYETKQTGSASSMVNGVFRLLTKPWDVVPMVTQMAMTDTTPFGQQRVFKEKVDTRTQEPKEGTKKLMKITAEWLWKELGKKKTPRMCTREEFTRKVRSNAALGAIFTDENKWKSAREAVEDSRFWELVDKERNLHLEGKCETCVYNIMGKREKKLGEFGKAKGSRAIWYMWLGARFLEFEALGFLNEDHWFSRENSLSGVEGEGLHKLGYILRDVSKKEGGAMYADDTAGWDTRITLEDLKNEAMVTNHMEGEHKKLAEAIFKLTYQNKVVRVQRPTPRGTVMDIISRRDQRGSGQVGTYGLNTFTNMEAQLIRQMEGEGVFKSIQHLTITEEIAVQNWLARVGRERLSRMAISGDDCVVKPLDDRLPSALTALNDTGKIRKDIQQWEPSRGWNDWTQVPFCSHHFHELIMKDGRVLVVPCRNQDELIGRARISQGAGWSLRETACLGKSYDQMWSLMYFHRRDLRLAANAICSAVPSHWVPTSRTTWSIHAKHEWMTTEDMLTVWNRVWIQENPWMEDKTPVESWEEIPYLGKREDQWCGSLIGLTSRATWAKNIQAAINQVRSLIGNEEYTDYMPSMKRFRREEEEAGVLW

Chain of Steroidogenic factor 1 (Q13285 whole entry): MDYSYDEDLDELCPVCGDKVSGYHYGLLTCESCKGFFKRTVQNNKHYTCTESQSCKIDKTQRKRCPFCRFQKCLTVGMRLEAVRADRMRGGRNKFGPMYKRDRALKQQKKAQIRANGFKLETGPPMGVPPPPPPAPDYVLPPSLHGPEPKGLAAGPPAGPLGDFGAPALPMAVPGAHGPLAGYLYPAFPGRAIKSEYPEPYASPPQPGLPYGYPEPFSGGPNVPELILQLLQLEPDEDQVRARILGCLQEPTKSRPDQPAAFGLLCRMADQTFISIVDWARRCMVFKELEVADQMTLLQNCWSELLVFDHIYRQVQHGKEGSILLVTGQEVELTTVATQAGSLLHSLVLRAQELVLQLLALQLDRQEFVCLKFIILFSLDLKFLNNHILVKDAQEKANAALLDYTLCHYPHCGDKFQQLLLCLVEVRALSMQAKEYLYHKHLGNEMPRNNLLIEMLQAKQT
Chain of Beta-lactamase (Pseudomonas aeruginosa, UniProt Q79MP6) (Q79MP6 whole entry): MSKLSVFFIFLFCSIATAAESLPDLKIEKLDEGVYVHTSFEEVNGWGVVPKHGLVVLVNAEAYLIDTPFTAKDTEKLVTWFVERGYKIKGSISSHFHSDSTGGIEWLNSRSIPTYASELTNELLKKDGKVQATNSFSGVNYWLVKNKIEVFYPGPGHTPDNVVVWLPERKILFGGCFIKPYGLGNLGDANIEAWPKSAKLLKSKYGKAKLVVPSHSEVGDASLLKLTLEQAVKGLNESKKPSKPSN

As for `O=[N+]([O-])c1ccc(N2CCN(S(=O)(=O)c3ccccc3)CC2)cc1NCc1cccnc1`, the IC50 was 35.9 µM (inactive) in assay [1], 14.8 µM (inactive) in assay [2] and 5.39 µM (active) at Steroidogenic factor 1.
`Cc1nn(-c2ccc(Cl)cc2)c(O)c1C(c1ccccc1O)c1c(C)[nH]n(-c2ccc(Cl)cc2)c1=O` (stereo not given): the IC50 in [3] was 13.3 µM (active); in assay [4], 21.1 µM (active); in [5], 32.9 µM (active); in assay [6], 8.38 µM (active); in [7] it was 6.68 µM (active).
For `O=C(Nc1ccc2oc(-c3ccccc3F)nc2c1)c1ccc([N+](=O)[O-])o1`, the IC50 on Beta-lactamase [8] is > 59.6 µM (inactive); with H9c2 it was > 79 µM (inactive); in assay [9], 3.72 µM (active); in assay [10] it was 1.23 µM (active); in assay [11], 7.64 µM (active); at Beta-lactamase [12], > 59.6 µM (inactive). In addition, the IC50 in assay [13] was 3.79 µM (active).
`Cc1cccc(NC(=O)CSc2nc3n[nH]cc3c(=O)[nH]2)c1C`: the IC50 was 4.46 µM (active) on Leucine aminopeptidase, 6.29 µM (active) in assay [2], 2.59 µM (active) at Steroidogenic factor 1 and > 47.1 µM (inactive) in assay [15]. Moreover, the EC50 in assay [14] is > 53 µM (inactive).
One may read the AC50 as the midpoint of the concentration-response curve, whichever way the signal moves. Regarding `Cc1ccc(S(=O)(=O)Nc2ccc3c(c2)CC(=O)N([C@@H](C)CO)C[C@@H](C)[C@@H](CN(C)S(=O)(=O)c2ccc(Cl)cc2)O3)cc1`, the AC50 in [16] is 35 µM (active).
As for `C[C@H](CO)N1C[C@H](C)[C@@H](CN(C)Cc2ccc(Cl)c(Cl)c2)Oc2ccc(NS(=O)(=O)c3ccc(F)cc3)cc2CC1=O`, the AC50 in [16] was 10.6 µM (active).
On to `CCOc1ccc(NS(=O)(=O)c2ccc(Cl)c(NN=C3C(=O)NC(=S)NC3=O)c2)cc1Br`, for which the IC50 on Genome polyprotein is 44.1 µM (active); in assay [4] it was 55 µM (active); in assay [7], 5.55 µM (active).
